Earlier results in patent US8058304B2, “Merged ion channel modulating compounds and uses thereof” (Cardiome Pharma Corp., priority 2004, dated 2011).

Tested on: patients with left ventricular dysfunction after recent and remote myocardial infarction
Settings: optically pure d-sotalol; SWORD study, Lancet 1996

CC(C)NC[C@@H](O)c1ccc(NS(C)(=O)=O)cc1 [d-sotalol]
increased mortality compared to placebo: 65%
